System: Streptomyces strain BA 9
Assay: Growth inhibition of producing strain BA 9 by antibiotics
Type: cell-based, Streptomyces sp.
Conditions: ISP medium No. 1+, 28° C., 2 d
Method: The optimum temperature is 28° (ISP medium No. 1^+, 5 d). No growth was observed on ISP medium No. 7 (tyrosine agar). Melanin is formed on ISP medium No. 6. The growth is inhibited by chloramphenicol (10 μg); erythromycin (10 μg), sulphafurazole (100 μg), streptomycin (10 μg), tetracycline (10 μg), chephaloridine (5 μg) fusidic acid (10 μg), lincomycin (10 μg) and novobiocib (5 μg) (ISP medium No. 1^+, 28° C., 2 d). Growth was good (substrate mycelium) on ISP media Nos. 3, 4 and 5, with sparse formation of aerial mycelium on ISP medium Nos. 3 and 5.

SMILES | growth inhibition of strain BA 9 (10 μg) | also measured
[H]/N=C(/N)N[C@H]1[C@H](O)[C@@H](O)[C@H](O[C@@H]2O[C@@H](C)[C@](O)(C=O)[C@H]2O[C@@H]2O[C@@H](CO)[C@H](O)[C@@H](O)[C@@H]2NC)[C@@H](N/C(N)=N\[H])[C@@H]1O [streptomycin] | inhibited | –
CO[C@@H]1[C@@H](OC(N)=O)[C@@H](O)[C@H](Oc2ccc3c(O)c(NC(=O)c4ccc(O)c(CC=C(C)C)c4)c(=O)oc3c2C)OC1(C)C [novobiocib] | – | growth inhibition of strain BA 9 (5 μg): inhibited
O=C(Cc1cccs1)N[C@@H]1C(=O)N2C(C(=O)[O-])=C(C[n+]3ccccc3)CS[C@H]12 [chephaloridine] | – | growth inhibition of strain BA 9 (5 μg): inhibited
CN(C)C1C(=O)C(C(N)=O)=C(O)C2(O)C(=O)C3=C(O)c4c(O)cccc4C(C)(O)C3CC12 (stereo not drawn) [tetracycline] | inhibited | –
CCC[C@@H]1C[C@@H](C(=O)N[C@@H]([C@H]2O[C@H](SC)[C@H](O)[C@@H](O)[C@H]2O)[C@@H](C)O)N(C)C1 [lincomycin] | inhibited | –
O=C(N[C@H](CO)[C@H](O)c1ccc([N+](=O)[O-])cc1)C(Cl)Cl [chloramphenicol] | inhibited | –
CC(=O)O[C@H]1C[C@@]2(C)[C@@H](C[C@@H](O)[C@H]3[C@@]4(C)CC[C@@H](O)[C@@H](C)[C@@H]4CC[C@@]32C)/C1=C(\CCC=C(C)C)C(=O)O [fusidic acid] | inhibited | –
CC[C@H]1OC(=O)[C@H](C)[C@@H](O[C@H]2C[C@@](C)(OC)[C@@H](O)[C@H](C)O2)[C@H](C)[C@@H](O[C@@H]2O[C@H](C)C[C@H](N(C)C)[C@H]2O)[C@](C)(O)C[C@@H](C)C(=O)[C@H](C)[C@@H](O)[C@]1(C)O [erythromycin] | inhibited | –
Cc1noc(NS(=O)(=O)c2ccc(N)cc2)c1C [sulphafurazole] | – | growth inhibition of strain BA 9 (100 μg): inhibited
